Data: ChEMBL document CHEMBL4507286 (2021)

Legend:
[1] = target: Tyrosine-protein kinase Tec (Homo sapiens) (UniProt P42680)
[2] = target: Dual specificity mitogen-activated protein kinase kinase 3 (Homo sapiens) (UniProt P46734)
[3] = target: Protein kinase C theta type (Homo sapiens) (UniProt Q04759)
[4] = target: Hormonally up-regulated neu tumor-associated kinase (Homo sapiens) (UniProt P57058)
[5] = target: Serine/threonine-protein kinase N2 (Homo sapiens) (UniProt Q16513)
[6] = system: Epidermal growth factor receptor (Homo sapiens), P00533 [UNDEFINED MUTATION]
[7] = system: Tyrosine-protein kinase ABL1 (Homo sapiens), P00519 [T315I]
[8] = system: Tyrosine-protein kinase ABL1 (Homo sapiens), P00519 [H396P]
[9] = target: Tyrosine-protein kinase Srms (Homo sapiens) (UniProt Q9H3Y6)
[10] = target: Cyclin-dependent kinase 8 (Homo sapiens) (UniProt P49336)
[11] = system: Epidermal growth factor receptor (Homo sapiens), P00533 [UNDEFINED MUTATION]; remark: listed apart in the source
[12] = target: Serine/threonine-protein kinase TBK1 (Homo sapiens) (UniProt Q9UHD2)
[13] = target: Glycogen synthase kinase-3 beta (Homo sapiens, UniProt P49841)
[14] = target: Serine/threonine-protein kinase tousled-like 1 (Homo sapiens) (UniProt Q9UKI8)
[15] = target: GABA-A receptor; anion channel (Rattus norvegicus) (UniProt O09028+P15431+P18506+P18508+P19969+P20236+P23574+P23576+P28471+P28473+P30191+P62813+P63079+P63138+Q91ZM7+Q9ES14); conditions: Compound concentration 10.0 uM
[16] = target: Serine/threonine-protein kinase LATS1 (Homo sapiens) (UniProt O95835)
[17] = target: Macrophage colony-stimulating factor 1 receptor (Homo sapiens) (UniProt P07333)
[18] = target: Cyclin-dependent kinase 2 homolog (Plasmodium falciparum (isolate 3D7)) (UniProt P61075)
Sequence of Cyclin-dependent kinase 2 homolog (Plasmodium falciparum (isolate 3D7)) (P61075 whole entry): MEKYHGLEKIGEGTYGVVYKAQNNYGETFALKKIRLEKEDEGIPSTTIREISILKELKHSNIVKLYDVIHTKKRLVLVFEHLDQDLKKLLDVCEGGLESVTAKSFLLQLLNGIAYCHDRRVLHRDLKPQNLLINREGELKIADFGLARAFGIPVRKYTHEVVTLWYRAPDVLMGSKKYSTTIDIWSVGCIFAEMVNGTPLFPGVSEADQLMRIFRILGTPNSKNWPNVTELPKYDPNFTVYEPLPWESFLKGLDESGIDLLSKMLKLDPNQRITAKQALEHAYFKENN

[19] = target: Phosphatidylinositol 5-phosphate 4-kinase type-2 gamma (Homo sapiens) (UniProt Q8TBX8)
Sequence of Phosphatidylinositol 5-phosphate 4-kinase type-2 gamma (Homo sapiens) (Q8TBX8 whole entry): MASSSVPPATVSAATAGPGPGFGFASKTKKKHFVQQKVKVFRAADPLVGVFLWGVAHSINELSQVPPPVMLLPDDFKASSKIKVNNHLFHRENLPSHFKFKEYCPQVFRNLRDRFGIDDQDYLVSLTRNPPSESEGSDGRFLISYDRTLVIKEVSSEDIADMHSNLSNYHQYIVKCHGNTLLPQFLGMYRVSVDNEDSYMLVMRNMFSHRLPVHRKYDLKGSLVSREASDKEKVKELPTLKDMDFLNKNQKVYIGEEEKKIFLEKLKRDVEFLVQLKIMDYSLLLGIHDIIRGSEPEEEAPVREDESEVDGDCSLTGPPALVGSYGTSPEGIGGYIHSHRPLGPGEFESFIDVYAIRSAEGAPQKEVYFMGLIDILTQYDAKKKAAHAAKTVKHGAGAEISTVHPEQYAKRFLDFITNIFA

[20] = target: Ribosomal protein S6 kinase alpha-5 (Homo sapiens) (UniProt O75582)
Sequence of Ribosomal protein S6 kinase alpha-5 (Homo sapiens) (O75582 whole entry, looked up): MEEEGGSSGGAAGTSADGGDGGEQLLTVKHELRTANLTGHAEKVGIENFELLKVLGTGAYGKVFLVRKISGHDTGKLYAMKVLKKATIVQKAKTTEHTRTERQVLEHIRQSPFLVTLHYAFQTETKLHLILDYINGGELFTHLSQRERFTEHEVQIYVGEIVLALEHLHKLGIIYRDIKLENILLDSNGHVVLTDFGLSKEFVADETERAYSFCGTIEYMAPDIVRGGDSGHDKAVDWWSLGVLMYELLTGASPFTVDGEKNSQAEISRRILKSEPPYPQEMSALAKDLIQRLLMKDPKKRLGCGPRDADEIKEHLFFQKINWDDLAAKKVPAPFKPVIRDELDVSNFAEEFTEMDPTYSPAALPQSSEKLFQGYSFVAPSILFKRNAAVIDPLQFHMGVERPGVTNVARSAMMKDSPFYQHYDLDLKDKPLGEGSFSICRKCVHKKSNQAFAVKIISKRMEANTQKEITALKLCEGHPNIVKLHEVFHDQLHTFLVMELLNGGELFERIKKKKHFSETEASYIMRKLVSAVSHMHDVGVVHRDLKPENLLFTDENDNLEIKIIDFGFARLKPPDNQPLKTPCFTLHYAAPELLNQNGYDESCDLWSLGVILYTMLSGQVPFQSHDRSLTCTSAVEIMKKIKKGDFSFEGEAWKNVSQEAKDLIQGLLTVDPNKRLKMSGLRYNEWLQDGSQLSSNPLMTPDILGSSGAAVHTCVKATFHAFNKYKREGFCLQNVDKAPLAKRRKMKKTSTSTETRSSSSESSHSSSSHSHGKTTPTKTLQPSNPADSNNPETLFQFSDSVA

[21] = target: Tyrosine-protein kinase ITK/TSK (Homo sapiens) (UniProt Q08881)
[22] = target: 3-phosphoinositide-dependent protein kinase 1 (Homo sapiens) (UniProt O15530)
[23] = system: Hepatocyte growth factor receptor (Homo sapiens), P08581 [M1250T]
[24] = target: Receptor tyrosine-protein kinase erbB-2 (Homo sapiens) (UniProt P04626)
[25] = target: Inhibitor of nuclear factor kappa-B kinase subunit alpha (Homo sapiens) (UniProt O15111)
[26] = target: Tyrosine-protein kinase SYK (Homo sapiens) (UniProt P43405)
[27] = target: cAMP-dependent protein kinase catalytic subunit beta (Homo sapiens) (UniProt P22694)
[28] = system: eIF-2-alpha kinase GCN2 (Homo sapiens), Q9P2K8 [S808G]
[29] = target: Myosin light chain kinase, smooth muscle (Homo sapiens) (UniProt Q15746)
[30] = target: Epithelial discoidin domain-containing receptor 1 (Homo sapiens) (UniProt Q08345)
[31] = system: Epidermal growth factor receptor (Homo sapiens), P00533 [T790M]
[32] = target: Serine/threonine-protein kinase N1 (Homo sapiens) (UniProt Q16512)
Sequence of Serine/threonine-protein kinase N1 (Homo sapiens) (Q16512 2-942 limits assumed): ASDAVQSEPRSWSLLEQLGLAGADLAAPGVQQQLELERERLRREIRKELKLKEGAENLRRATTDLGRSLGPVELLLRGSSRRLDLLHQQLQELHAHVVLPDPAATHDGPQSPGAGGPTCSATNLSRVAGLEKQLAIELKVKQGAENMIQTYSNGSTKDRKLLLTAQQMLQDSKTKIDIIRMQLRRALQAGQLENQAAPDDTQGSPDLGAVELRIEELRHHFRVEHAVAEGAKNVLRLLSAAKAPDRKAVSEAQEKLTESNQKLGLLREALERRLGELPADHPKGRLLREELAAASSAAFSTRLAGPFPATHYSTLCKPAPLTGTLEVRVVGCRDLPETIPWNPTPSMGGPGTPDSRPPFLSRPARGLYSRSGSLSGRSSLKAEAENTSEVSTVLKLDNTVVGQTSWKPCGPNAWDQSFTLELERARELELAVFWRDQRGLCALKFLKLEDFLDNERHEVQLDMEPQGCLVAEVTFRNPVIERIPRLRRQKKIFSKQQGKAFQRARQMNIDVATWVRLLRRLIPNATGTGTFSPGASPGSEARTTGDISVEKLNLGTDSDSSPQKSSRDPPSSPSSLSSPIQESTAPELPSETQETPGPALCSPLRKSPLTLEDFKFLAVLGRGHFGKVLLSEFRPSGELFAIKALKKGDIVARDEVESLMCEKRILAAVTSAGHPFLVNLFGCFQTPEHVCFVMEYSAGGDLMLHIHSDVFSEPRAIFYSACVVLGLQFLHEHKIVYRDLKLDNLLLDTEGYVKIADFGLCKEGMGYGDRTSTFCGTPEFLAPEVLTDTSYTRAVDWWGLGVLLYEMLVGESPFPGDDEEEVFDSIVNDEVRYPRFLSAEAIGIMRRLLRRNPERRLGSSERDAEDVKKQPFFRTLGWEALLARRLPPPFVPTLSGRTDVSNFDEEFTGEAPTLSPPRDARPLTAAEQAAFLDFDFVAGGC

[33] = target: Ephrin type-A receptor 7 (Homo sapiens) (UniProt Q15375)
Sequence of Ephrin type-A receptor 7 (Homo sapiens) (Q15375 28-998 limits assumed): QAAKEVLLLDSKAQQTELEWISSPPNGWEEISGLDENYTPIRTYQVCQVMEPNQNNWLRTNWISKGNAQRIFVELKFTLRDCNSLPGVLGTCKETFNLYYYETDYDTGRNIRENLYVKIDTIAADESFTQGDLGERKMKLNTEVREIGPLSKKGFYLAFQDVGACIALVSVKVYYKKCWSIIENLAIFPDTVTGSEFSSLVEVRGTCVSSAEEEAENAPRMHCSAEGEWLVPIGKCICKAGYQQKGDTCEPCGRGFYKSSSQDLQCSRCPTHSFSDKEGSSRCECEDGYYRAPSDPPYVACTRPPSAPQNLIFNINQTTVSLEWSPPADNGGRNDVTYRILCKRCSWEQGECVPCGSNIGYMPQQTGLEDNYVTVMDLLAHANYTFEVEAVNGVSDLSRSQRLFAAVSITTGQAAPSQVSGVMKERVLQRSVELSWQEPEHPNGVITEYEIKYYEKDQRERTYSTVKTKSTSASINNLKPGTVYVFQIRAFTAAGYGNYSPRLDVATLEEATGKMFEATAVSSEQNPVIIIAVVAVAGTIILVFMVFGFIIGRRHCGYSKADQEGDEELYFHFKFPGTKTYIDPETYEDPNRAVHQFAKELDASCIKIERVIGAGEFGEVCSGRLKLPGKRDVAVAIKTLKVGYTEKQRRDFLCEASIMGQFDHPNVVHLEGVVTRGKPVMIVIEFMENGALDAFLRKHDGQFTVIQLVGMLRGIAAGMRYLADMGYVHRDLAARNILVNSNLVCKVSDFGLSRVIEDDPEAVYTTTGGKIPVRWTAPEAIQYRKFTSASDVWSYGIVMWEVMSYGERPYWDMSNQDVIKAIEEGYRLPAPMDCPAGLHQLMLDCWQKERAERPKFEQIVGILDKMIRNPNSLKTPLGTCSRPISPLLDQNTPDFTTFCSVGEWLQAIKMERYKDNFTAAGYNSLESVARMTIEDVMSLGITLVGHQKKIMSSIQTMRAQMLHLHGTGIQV

[34] = system: Epidermal growth factor receptor (Homo sapiens), P00533 [L858R,T790M]
[35] = target: Ribosomal protein S6 kinase alpha-1 (Homo sapiens) (UniProt Q15418)
[36] = target: Ribosomal protein S6 kinase alpha-4 (Homo sapiens) (UniProt O75676)
[37] = target: Serine/threonine-protein kinase haspin (Homo sapiens) (UniProt Q8TF76)
[38] = target: Serine/threonine-protein kinase OSR1 (Homo sapiens) (UniProt O95747)
[39] = target: Dual specificity protein kinase CLK1 (Homo sapiens) (UniProt P49759)
[40] = target: Wee1-like protein kinase (Homo sapiens) (UniProt P30291)
[41] = target: 5'-AMP-activated protein kinase catalytic subunit alpha-1 (Homo sapiens) (UniProt Q13131)
[42] = target: Calcium/calmodulin-dependent protein kinase type 1B (Homo sapiens) (UniProt Q6P2M8)
[43] = target: TRAF2 and NCK-interacting protein kinase (Homo sapiens) (UniProt Q9UKE5)
[44] = Compound concentration 1000.0 nM
[45] = Compound concentration 100.0 nM

Sequence of Serine/threonine-protein kinase N2 (Homo sapiens) (Q16513 whole entry, looked up): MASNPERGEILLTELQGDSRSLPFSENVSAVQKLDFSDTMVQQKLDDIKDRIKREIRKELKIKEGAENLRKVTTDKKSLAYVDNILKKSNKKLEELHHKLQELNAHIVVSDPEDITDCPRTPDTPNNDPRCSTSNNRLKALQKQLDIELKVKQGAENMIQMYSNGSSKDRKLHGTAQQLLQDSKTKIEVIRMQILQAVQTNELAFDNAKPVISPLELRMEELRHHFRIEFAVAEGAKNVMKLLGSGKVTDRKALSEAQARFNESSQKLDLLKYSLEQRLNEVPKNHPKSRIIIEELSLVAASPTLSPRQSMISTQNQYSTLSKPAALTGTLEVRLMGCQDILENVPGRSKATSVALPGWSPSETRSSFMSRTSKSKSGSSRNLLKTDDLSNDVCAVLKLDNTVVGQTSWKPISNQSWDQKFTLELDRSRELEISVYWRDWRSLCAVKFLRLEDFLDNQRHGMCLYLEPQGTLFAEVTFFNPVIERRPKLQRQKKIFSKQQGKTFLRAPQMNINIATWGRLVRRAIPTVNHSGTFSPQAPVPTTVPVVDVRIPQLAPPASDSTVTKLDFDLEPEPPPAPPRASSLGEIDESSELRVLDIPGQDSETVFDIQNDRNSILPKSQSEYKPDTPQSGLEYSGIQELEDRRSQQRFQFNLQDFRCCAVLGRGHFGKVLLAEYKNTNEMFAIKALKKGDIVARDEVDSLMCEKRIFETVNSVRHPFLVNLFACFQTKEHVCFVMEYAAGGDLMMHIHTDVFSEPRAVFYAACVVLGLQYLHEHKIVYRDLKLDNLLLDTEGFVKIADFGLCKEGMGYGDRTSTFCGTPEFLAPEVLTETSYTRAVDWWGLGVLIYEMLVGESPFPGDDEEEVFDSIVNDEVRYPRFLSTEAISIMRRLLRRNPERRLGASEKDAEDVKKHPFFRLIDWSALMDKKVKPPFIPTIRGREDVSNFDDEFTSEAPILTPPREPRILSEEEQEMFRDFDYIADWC
Sequence of Tyrosine-protein kinase Tec (Homo sapiens) (P42680 whole entry): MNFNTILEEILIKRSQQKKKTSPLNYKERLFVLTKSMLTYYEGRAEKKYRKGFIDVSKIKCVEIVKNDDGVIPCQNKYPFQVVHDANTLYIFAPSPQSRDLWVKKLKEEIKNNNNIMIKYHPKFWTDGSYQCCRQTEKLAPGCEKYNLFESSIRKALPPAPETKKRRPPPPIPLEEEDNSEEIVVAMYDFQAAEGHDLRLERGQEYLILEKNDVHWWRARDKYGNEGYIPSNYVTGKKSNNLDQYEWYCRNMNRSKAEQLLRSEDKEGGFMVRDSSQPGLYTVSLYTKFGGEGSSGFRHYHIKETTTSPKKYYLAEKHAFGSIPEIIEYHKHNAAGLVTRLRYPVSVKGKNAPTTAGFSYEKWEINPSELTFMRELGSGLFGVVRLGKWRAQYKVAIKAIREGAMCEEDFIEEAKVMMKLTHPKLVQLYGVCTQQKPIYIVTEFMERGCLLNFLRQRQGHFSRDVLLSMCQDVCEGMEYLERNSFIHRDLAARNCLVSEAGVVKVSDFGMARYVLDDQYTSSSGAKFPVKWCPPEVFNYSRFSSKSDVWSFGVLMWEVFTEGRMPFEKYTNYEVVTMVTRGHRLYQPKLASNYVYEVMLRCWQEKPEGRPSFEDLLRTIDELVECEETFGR

For `C[C@H](NC(=O)Nc1cc2[nH]ncc2c(CO)n1)c1ccccn1` [ERKi-NC], the residual activity [1, 44] was 100%, the residual activity [2, 44] was 76.3% and the residual activity [3, 44] was 100%. The residual activity [4, 44] was 100%, the residual activity [5, 44] was 100% and the residual activity [6, 44] was 100%. The residual activity [7, 44] was 100%, the residual activity [8, 44] was 72.5% and the residual activity [9, 44] was 84%. The residual activity [10, 44] was 100%, the residual activity [11, 44] was 34.7% and the residual activity [12, 44] was 48.3%. It also gave a residual activity [13, 44] of 100%, a residual activity [14, 44] of 100% and an inhibition [15] of 20.2%. The residual activity [16, 44] was 100%, the residual activity [17, 44] was 100% and the residual activity [18, 44] was 91.1%. The residual activity [19, 44] was 100%, the residual activity [20, 44] was 100% and the residual activity [21, 44] was 100%. It also gave a residual activity [22, 44] of 86.3%, a residual activity [23, 44] of 100% and a residual activity [24, 44] of 100%. For the same compound, the residual activity [25, 44] was 100%, the residual activity [26, 44] was 100% and the residual activity [27, 44] was 91.5%. It also gave a residual activity [28, 44] of 77.2%, a residual activity [29, 44] of 100% and a residual activity [30, 44] of 74.7%. For the same compound, the residual activity [31, 44] was 100%, the residual activity [32, 44] was 93.1% and the residual activity [33, 44] was 97.3%. It also gave a residual activity [34, 44] of 100%, a residual activity [35, 44] of 100% and a residual activity [36, 44] of 100%. For the same compound, the residual activity [37, 44] was 72.1%, the residual activity [38, 44] was 100% and the residual activity [39, 44] was 94.4%. It also gave a residual activity [40, 44] of 100%, a residual activity [41, 44] of 100% and a residual activity [42, 44] of 98.5%. For the same compound, the residual activity [43, 44] was 100%.
`C[C@@H](NC(=O)Nc1cc2[nH]ncc2c(CO)n1)c1ccccc1` [ERKi] gave a residual activity [1, 45] of 93.6%, a residual activity [2, 45] of 77% and a residual activity [3, 45] of 100%. The residual activity [4, 45] was 100%, the residual activity [5, 45] was 83.4% and the residual activity [6, 45] was 94.6%. It also gave a residual activity [7, 45] of 100%, a residual activity [8, 45] of 94.6% and a residual activity [9, 45] of 87.1%. It also gave a residual activity [10, 45] of 76.1%, a residual activity [11, 45] of 55.9% and a residual activity [12, 45] of 84.8%. It also gave a residual activity [13, 45] of 100%, a residual activity [14, 45] of 80.3% and an inhibition [15] of 46.2%. For the same compound, the residual activity [16, 45] was 59.3%, the residual activity [17, 45] was 89.3% and the residual activity [18, 45] was 80.1%. For the same compound, the residual activity [19, 45] was 95%, the residual activity [20, 45] was 82.7% and the residual activity [21, 45] was 83.2%. The residual activity [22, 45] was 100%, the residual activity [23, 45] was 72.3% and the residual activity [24, 45] was 100%. The residual activity [25, 45] was 100%, the residual activity [26, 45] was 100% and the residual activity [27, 45] was 77%. It also gave a residual activity [28, 45] of 100%, a residual activity [29, 45] of 83.5% and a residual activity [30, 45] of 100%. The residual activity [31, 45] was 82.1%, the residual activity [32, 45] was 89.3% and the residual activity [33, 45] was 91.1%. It also gave a residual activity [34, 45] of 100%, a residual activity [35, 45] of 100% and a residual activity [36, 45] of 94.5%. The residual activity [37, 45] was 53.7%, the residual activity [38, 45] was 69.8% and the residual activity [39, 45] was 72.6%. For the same compound, the residual activity [40, 45] was 98.9%, the residual activity [41, 45] was 91% and the residual activity [42, 45] was 91.2%. The residual activity [43, 45] was 95.8%.
